Laboratory results reported in publication PMC7031302, “Design and synthesis of new energy restriction mimetic agents: Potent anti-tumor activities of hybrid motifs of aminothiazoles and coumarins” (Scientific Reports, 2020).
Where two headings read alike, the source gives them in different places.

How the values were obtained:
Format in all cases: cell-based, Human
[1] = tested on: HCT116; assay: MTT cell viability, HCT116; settings: for IC50: read-out: half-maximal inhibitory concentration (IC50) HCT116
Procedure: (§1) The potential cytotoxicity of 24 candidate compounds was initially evaluated at a single concentration level (5 μM). Then a full dose-response curve was plotted for each compound against different colorectal cancer cell lines (HCT116 and HT-29) by MTT assay after 72 h treatments. 4-hydroxycoumarin, OSU-CG5, and OSU-CG12 were used as positive controls. […] Compounds 9b, 9c, 9f, 9i, 11b, and 11c were selected for further studies to determine the full dose-response survival curves using different concentrations (0.1–20 µM) against CRC cell lines and normal fibroblast cell line (F180) at different time points (Fig. 2A–2F and supplementary material Page S63 and S64).
(§2) Human colorectal carcinoma cell lines (HCT116) and (HT-29) were obtained from the European Collection of Cell Cultures (ECACC, UK). The cell lines were cultured in Roswell Park Memorial Institute medium (RPMI-1640, Sigma-Aldrich-St. Louis, MO, USA) supplemented with 10% fetal bovine serum (Sigma-Aldrich-St. Louis, MO, USA) and 1% penicillin/streptomycin (Sigma-Aldrich- Louis, MO, USA). F180 cell line (Human Normal Fibroblast), was kindly given by professor Ekkehard Dikomey (University Cancer Center, Hamburg University, Hamburg, Germany) and were cultured in Dulbecco’s Modified Eagle’s medium (DMEM, Sigma-Aldrich-St. Louis, MO, USA) supplemented with 10% fetal bovine serum (Sigma-Aldrich-St. Louis, MO, USA) and 1% penicillin/streptomycin (Sigma-Aldrich- Louis, MO, USA). All cell incubations were done at 37 °C in a humidified atmosphere of 5% CO2.
(§3) Cell viability was assessed using, 3-(4,5-dimethylthiazol-2-yl)-2,5-diphenyltetrazolium bromide (MTT) assay as previously described. In summary, cancer cell lines or F180 were seeded in complete medium at the density of 3 × 10^3/well and 5 × 10^3/well respectively in 96 well flat-bottom plates. After 24 h, cells were incubated with the candidate compounds at the indicated concentration for (24, 48 or 72 h). DMSO was used as vehicle control and 4-Hydroxycoumarin was purchased from (Sigma-Aldrich, St. Louis, MO, USA) and Cisplatin from Hospira UK Ltd. At the end of treatment, the media were aspirated from each well and incubated with 200 µL of MTT tetrazolium dye (Sigma-Aldrich, St. Louis, MO, USA) at a final concentration of 0.5 mg/ml for 2 h at 37 °C. The reduced MTT crystals were solubilized in 200 µl/well of DMSO and the absorbance was measured at 570 nm using a microplate reader (Thermo-Scientific, Vantaa, Finland).

[2] = tested on: HT-29; assay: MTT cell viability, HT-29; settings: for IC50: read-out: half-maximal inhibitory concentration (IC50) HT-29
Procedure: as §1, §2, §3

[3] = tested on: colorectal cancer cell lines, HCT116 and HT-29; assay: MTT cell viability, colorectal cancer cell lines (summary statements); settings: for anticancer activities in initial screening, in words: HT-29 and HCT116 cancer cell lines; for IC50: both cell lines, summary statement
Procedure: as §1, §2, §3

[4] = Homo sapiens, HCT-116, 72 h, 72 h, MTT assay, mean ± SD (n = 6)
[5] = Homo sapiens, HT-29, 72 h, 72 h, MTT assay, mean ± SD (n = 6)
[6] = 72 h, MTT assay, mean ± SD (n = 6)

| Compound | IC50 [1, 4] [µM] | IC50 [2, 5] [nM] | other results |
| --- | --- | --- | --- |
| CCc1cc(=O)oc2cc(Nc3nc(-c4ccccc4[N+](=O)[O-])cs3)ccc12 [Compound 10h, 4-Ethyl-7-(4-(2-nitrophenyl)thiazol-2-ylamino)-2H-chromen-2-one] | 4.73 ± 1.93 | 1680 ± 470 |  |
| Cc1cc(=O)oc2cc(Nc3nc(-c4ccccc4)cs3)ccc12 [Compound 9a, 4-Methyl-7-(4-phenylthiazol-2-ylamino)-2H-chromen-2-one] |  | 1540 ± 20 | anticancer activities in initial screening, in words [3]: significant anticancer activities |
| Cc1cc(=O)oc2cc(Nc3nc(-c4ccccc4[N+](=O)[O-])cs3)ccc12 [Compound 9h, 4-Methyl-7-(4-(2-nitrophenyl)thiazol-2-ylamino)-2H-chromen-2-one] | > 30 | > 30000 |  |
| CCc1cc(=O)oc2cc(Nc3nc(-c4ccccc4OC)cs3)ccc12 [Compound 10i, 4-Ethyl-7-(4-(2-methoxyphenyl)thiazol-2-ylamino)-2H-chromen-2-one] | 13.5 ± 0.2 | 3960 ± 1650 |  |
| CCC(CC)CN1C(=O)S/C(=C\c2ccc(O)c(C(F)(F)F)c2)C1=O [OSU-CG5, reference compound] |  |  | IC50 [1, 6]: 2.85 ± 0.111 µM; IC50 [2, 6]: 10100 ± 373 nM |
| CCc1cc(=O)oc2cc(Nc3nc(-c4cccc([N+](=O)[O-])c4)cs3)ccc12 [Compound 10f, 4-Ethyl-7-(4-(3-nitrophenyl)thiazol-2-ylamino)-2H-chromen-2-one] | 10.3 ± 3.15 | 4410 ± 1370 |  |
| CCc1cc(=O)oc2cc(Nc3nc(-c4cccc(OC)c4)cs3)ccc12 [Compound 10e, 4-Ethyl-7-(4-(3-methoxyphenyl)thiazol-2-ylamino)-2H-chromen-2-one] | > 30 | 13100 ± 1390 |  |
| N.N.[Cl][Pt][Cl] [cisplatin, Cisplatin, reference compound] |  |  | IC50 of cisplatin as a single compound, HCT116 ([1]; single compound, 72 h MTT): 1.93 µg/mL; IC50 of cisplatin as a single compound, HT-29 ([2]; single compound, 72 h MTT): 1.81 µg/mL |
| O=c1cc(O)c2ccccc2o1 [4-Hydroxycoumarin, reference compound] |  |  | IC50 ([1]; Homo sapiens, HCT-116, 72 h): > 200 µM; IC50 ([2]; Homo sapiens, HT-29, 72 h): > 200000 nM |
| CCc1cc(=O)oc2cc(Nc3nc(-c4cccc(F)c4)cs3)ccc12 [Compound 10g, 4-Ethyl-7-(4-(3-fluorophenyl)thiazol-2-ylamino)-2H-chromen-2-one] | 4.08 ± 2.68 | 2340 ± 615 |  |
| Cc1cc(=O)oc2cc(Nc3nc(-c4cccc(F)c4)cs3)ccc12 [Compound 9g, 7-(4-(3-Fluorophenyl)thiazol-2-ylamino)-4-methyl-2H-chromen-2-one] | 3.5 ± 0.93 | 2910 ± 1250 |  |
| CCc1cc(=O)oc2cc(Nc3nc(-c4ccc(Cl)cc4)cs3)ccc12 [Compound 10c, 7-(4-(4-Chlorophenyl)thiazol-2-ylamino)-4-ethyl-2H-chromen-2-one] | 3.54 ± 0.53 | 1300 ± 127 |  |
| COc1ccccc1-c1csc(Nc2ccc3c(C)cc(=O)oc3c2)n1 [Compound 9i, 7-(4-(2-Methoxyphenyl)thiazol-2-ylamino)-4-methyl-2H-chromen-2-one] | 0.32 ± 0.041 | 320 ± 17 | anticancer activities in initial screening, in words [3]: significant anticancer activities; IC50 [3]: < 600 nM |
| CCc1cc(=O)oc2cc(Nc3nc(-c4ccccc4)cs3)ccc12 [Compound 10a, 4-Ethyl-7-(4-phenylthiazol-2-ylamino)-2H-chromen-2-one] | > 30 | > 30000 |  |
| Cc1cc(=O)oc2cc(Nc3nc(-c4ccc(Cl)cc4)cs3)ccc12 [Compound 9c, 7-(4-(4-Chlorophenyl)thiazol-2-ylamino)-4-methyl-2H-chromen-2-one] | 0.31 ± 0.014 | 370 ± 77 | anticancer activities in initial screening, in words [3]: significant anticancer activities; IC50 [3]: < 600 nM |
| CCOc1ccc(-c2csc(Nc3ccc4c(C)cc(=O)oc4c3)n2)cc1 [Compound 9d, 7-(4-(4-Ethoxyphenyl)thiazol-2-ylamino)-4-methyl-2H-chromen-2-one] | 3.21 ± 0.88 | 3030 ± 20.5 |  |
| CCc1cc(=O)oc2cc(Nc3nc(-c4ccc(Br)cc4)cs3)ccc12 [Compound 10b, 7-(4-(4-Bromophenyl)thiazol-2-ylamino)-4-ethyl-2H-chromen-2-one] | 3.03 ± 2.25 | 2970 ± 200 |  |
| COc1cccc(-c2csc(Nc3ccc4c(C)cc(=O)oc4c3)n2)c1 [Compound 9e, 7-(4-(3-Methoxyphenyl)thiazol-2-ylamino)-4-methyl-2H-chromen-2-one] | 3.05 ± 0.14 | 3000 ± 159 |  |

Further lines, with some results ahead:

| IC50 [1, 4] [µM] | IC50 [2, 5] [nM] | Compound | other results |
| --- | --- | --- | --- |
| 0.34 ± 0.0009 | 330 ± 32 | CCCc1cc(=O)oc2cc(Nc3nc(-c4ccc(Cl)cc4)cs3)ccc12 [Compound 11c, 7-(4-(4-Chlorophenyl)thiazol-2-ylamino)-4-propyl-2H-chromen-2-one] | anticancer activities in initial screening, in words [3]: significant anticancer activities; IC50 [3]: < 600 nM |
| 4.08 ± 1.36 | 1800 ± 760 | CCCc1cc(=O)oc2cc(Nc3nc(-c4cccc(F)c4)cs3)ccc12 [Compound 11g, 7-(4-(3-Fluorophenyl)thiazol-2-ylamino)-4-propyl-2H-chromen-2-one] |  |
| > 30 | 3660 ± 38 | CCCc1cc(=O)oc2cc(Nc3nc(-c4cccc([N+](=O)[O-])c4)cs3)ccc12 [Compound 11f, 7-(4-(3-Nitrophenyl)thiazol-2-ylamino)-4-propyl-2H-chromen-2-one] |  |
| 6.76 ± 0.28 | 2130 ± 300 | CCCc1cc(=O)oc2cc(Nc3nc(-c4ccccc4)cs3)ccc12 [Compound 11a, 7-(4-Phenylthiazol-2-ylamino)-4-propyl-2H-chromen-2-one] |  |
| 28.6 ± 6.56 | 8890 ± 813 | CCCc1cc(=O)oc2cc(Nc3nc(-c4cccc(OC)c4)cs3)ccc12 [Compound 11e, 7-(4-(3-Methoxyphenyl)thiazol-2-ylamino)-4-propyl-2H-chromen-2-one] |  |
| 6.3 ± 0.605 | 3960 ± 14 | CCCc1cc(=O)oc2cc(Nc3nc(-c4ccccc4[N+](=O)[O-])cs3)ccc12 [Compound 11h, 7-(4-(2-Nitrophenyl)thiazol-2-ylamino)-4-propyl-2H-chromen-2-one] |  |
| 0.26 ± 0.016 | 250 ± 4 | CCCc1cc(=O)oc2cc(Nc3nc(-c4ccc(Br)cc4)cs3)ccc12 [Compound 11b, 7-(4-(4-Bromophenyl)thiazol-2-ylamino)-4-propyl-2H-chromen-2-one] | anticancer activities in initial screening, in words [3]: significant anticancer activities; IC50 [3]: < 600 nM |
